Like-named read-outs stand apart in the source and are kept apart here.
Legend:
Tadpoles = assay: Tadpole movement suppression (anesthetic efficacy); type: in vivo
Procedure: Tadpoles were placed in a petri dish containing aquarium water. Four to eight tadpoles were placed in each petri dish. The aquarium water contained the specified test compound at the listed concentration. When the tadpoles stopped moving, a plastic rod was used to elicit motion once again by contact between the rod and tadpole. […] From this and the number of subjects, the percent of tadpoles in which movement was suppressed were calculated.
After 1 to 30 minutes, they were again contacted with a rod to ensure the anesthetic effect had worn off
In some examples, subanesthetic concentrations of ethanol were added into the aquarium water. Tadpoles in which movement was prevented with exposure to a test compound and ethanol but not with exposure to a test compound alone were classified as partial anesthetics.

mouse = assay: Anesthetic effect in mice after subcutaneous or intravenous injection of aqueous solutions; type: in vivo; settings: mouse
Procedure: Butyric acid was dissolved in water to form an 8 M solution. 0.5 mL of the 8 M solution of butyric acid was injected subcutaneously (at the back of the neck) into the mouse.
3-hydroxybutyric acid was dissolved in water to form 1 M, 1.5 M, and 2 M solutions. 0.2 mL of a 1.5 M solution of 3-hydroxybutyric acid was injected into a tail vein of a CD-1 mouse. […] This was repeated for at least 2 more times on subsequent days.
Ethylmalonic acid was dissolved in water to form 2 M, 3 M, and 4 M solutions. 0.2 mL of a 3 M solution of ethylmalonic acid was injected into a tail vein of a mouse. […] This was repeated for at least 2 more times on subsequent days.
Ethylmalonic acid was dissolved in water to form a 4 M solution. 0.5 mL of the 4 M solution of ethylmalonic acid was injected subcutaneously into the mouse.

mice = settings: intravenously; for Observed effect on the animals: 62.5 mM solution in intralipid
[1] = Concentration (mM): 125 + 150 EtOH
[2] = Concentration (mM): 250 + 150 EtOH
[3] = Concentration (mM): 50 + 150 EtOH
[4] = Concentration (mM): 20 + 150 EtOH
[5] = Concentration (mM): 25 + 150 EtOH
[6] = Concentration (mM): 100 + 150 EtOH
[7] = Concentration (mM): 12.5 + 150 EtOH

CCC(O)C(=O)O (stereo not shown) [2-Hydroxybutyric acid, 2-hydroxybutyric acid]
Movement suppressed (%) (Tadpoles; Concentration (mM): 125): 0% | Movement suppressed (%) (Tadpoles; [1]): 86%

O=C(O)CCC(=O)C(=O)O [2-Oxoglutaric acid]
Movement suppressed (%) (Tadpoles; Concentration (mM): 200 + 150 EtOH): 86% | Movement suppressed (%) (Tadpoles; [2]): 100%

CC(C)(C)CC(=O)O [3,3-Dimethylbutyric acid, 3,3-Dimethylbutanoic acid]
Movement suppressed (%) (Tadpoles; Concentration (mM): 25): 100%

CC(C)(O)CC(=O)O [3-Hydroxy-3-methylbutyric acid, 3-Hydroxy-3-methylbutanoic acid]
Movement suppressed (%) (Tadpoles; Concentration (mM): 1.6): 0% | Movement suppressed (%) (Tadpoles; Concentration (mM): 6.25): 0% | Movement suppressed (%) (Tadpoles; Concentration (mM): 25): 0% | Movement suppressed (%) (Tadpoles; [3]): 100% | Movement suppressed (%) (Tadpoles; Concentration (mM): 100): 100%

CCC(C)C(=O)C(=O)O (stereo not shown) [3-Methyl-2-oxovaleric acid, 3-Methyl-2-oxopentanoic acid]
Movement suppressed (%) (Tadpoles; Concentration (mM): 250): 33%

Cc1cccc(C(=O)NCC(=O)O)c1 [3-Methylhippuric acid, (3-Methylbenzoyl)glycine]
Movement suppressed (%) (Tadpoles; Concentration (mM): 3.125): 0% | Movement suppressed (%) (Tadpoles; Concentration (mM): 3.125 + 150 EtOH): 100%

CCC(C)CC(=O)O (stereo not shown) [3-Methylvaleric acid, 3-Methylpentanoic acid]
Movement suppressed (%) (Tadpoles; Concentration (mM): 20): 25% | Movement suppressed (%) (Tadpoles; [4]): 66%

CC(=O)CCCC(=O)O [4-Acetylbutyric acid, 5-Oxohexanoic acid]
Movement suppressed (%) (Tadpoles; Concentration (mM): 25): 0% | Movement suppressed (%) (Tadpoles; [5]): 80%

Cc1ccc(C(=O)NCC(=O)O)cc1 [4-Methylhippuric acid, (4-Methylbenzoyl)glycine]
Movement suppressed (%) (Tadpoles; [5]): 33% | Movement suppressed (%) (Tadpoles; Concentration (mM): 50): 0% | Movement suppressed (%) (Tadpoles; [3]): 100% | Movement suppressed (%) (Tadpoles; Concentration (mM): 150 EtOH (no test compound concentration printed)): 0%

CC(C)CCC(=O)O [4-Methylvaleric acid]
Movement suppressed (%) (Tadpoles; Concentration (mM): 20): 0% | Movement suppressed (%) (Tadpoles; [4]): 100%

O=C(O)CCCCC(=O)O [Adipic acid, Hexanedioic acid]
Movement suppressed (%) (Tadpoles; Concentration (mM): 50): 0% | Movement suppressed (%) (Tadpoles; [3]): 83%

C[C@H](N)C(=O)O [Alanine]
Movement suppressed (%) (Tadpoles; Concentration (mM): 62.5 + 150 EtOH): 20% | Movement suppressed (%) (Tadpoles; [1]): 80%

O=C(NC(O)C(=O)O)c1ccccc1 (stereo not drawn) [Alpha-Hydroxyhippuric acid, 2-Benzamido-2-hydroxyacetic acid]
Movement suppressed (%) (Tadpoles; Concentration (mM): 5): 33% | Movement suppressed (%) (Tadpoles; Concentration (mM): 5 + 20 EtOH): 66% | Movement suppressed (%) (Tadpoles; Concentration (mM): 10): 100%

N=C(N)NCCC[C@H](N)C(=O)O [Arginine]
Movement suppressed (%) (Tadpoles; Concentration (mM): 46.5): 0% | Movement suppressed (%) (Tadpoles; Concentration (mM): 192 + 150 EtOH): 83%

C[N+](C)(C)CCO [Choline]
Movement suppressed (%) (Tadpoles; Concentration (mM): 46 + 150 EtOH): 0% | Movement suppressed (%) (Tadpoles; [6]): 40% | Movement suppressed (%) (Tadpoles; Concentration (mM): 120 + 150 EtOH): 66%

CC(C)(C(=O)O)C(=O)O [Dimethylmalonic acid]
Movement suppressed (%) (Tadpoles; Concentration (mM): 125): 60% | Movement suppressed (%) (Tadpoles; Concentration (mM): 250): 60%

CCO [Ethanol control, ethanol, reference compound]
Movement suppressed (%) (Tadpoles; Concentration (mM): 100): 0% | Movement suppressed (%) (Tadpoles; Concentration (mM): 150): 0% | Movement suppressed (%) (Tadpoles; Concentration (mM): 200): 0% | Movement suppressed (%) (Tadpoles; Concentration (mM): 250): 33%

CCC(C(=O)O)C(=O)O [Ethyl Malonic Acid, 2-Ethylmalonic acid]
Observed effect on the mouse (mouse; 0.2 mL of 3 M solution in water, tail vein): became unconscious | Observed effect on the mouse (mouse; 0.5 mL of 4 M solution in water, subcutaneously): became sedated, anesthetized, or lose consciousness | Observed effect on the mouse (mouse; 2 M solution in water, tail vein): did not have any observable effect | Lethality (mouse; 4 M solution in water, tail vein): lethal | Movement suppressed (%) (Tadpoles; Concentration (mM): 16): 0% | Movement suppressed (%) (Tadpoles; Concentration (mM): 62.5): 0% | Movement suppressed (%) (Tadpoles; Concentration (mM): 125): 100% | Movement suppressed (%) (Tadpoles; Concentration (mM): 250): 100%

N[C@@H](CCC(=O)O)C(=O)O [Glutamate, Glutamic acid]
Movement suppressed (%) (Tadpoles; [3]): 100%

NC(=O)CC[C@H](N)C(=O)O [Glutamine]
Movement suppressed (%) (Tadpoles; Concentration (mM): 25): 0% | Movement suppressed (%) (Tadpoles; Concentration (mM): 50): 100% | Movement suppressed (%) (Tadpoles; Concentration (mM): 100): 100%

O=C(O)CCCC(=O)O [Glutaric acid]
Movement suppressed (%) (Tadpoles; Concentration (mM): 7.8): 0% | Movement suppressed (%) (Tadpoles; Concentration (mM): 31): 0% | Movement suppressed (%) (Tadpoles; Concentration (mM): 125): 0% | Movement suppressed (%) (Tadpoles; [1]): 60%

O=C(O)Cc1c[nH]c2ccccc12 [Indole-3-acetic acid, 2-(1H-indol-3-yl)acetic acid]
Movement suppressed (%) (Tadpoles; Concentration (mM): 12.5): 0% | Movement suppressed (%) (Tadpoles; [7]): 100%

CC[C@H](C)[C@H](N)C(=O)O [Isoleucine]
Movement suppressed (%) (Tadpoles; Concentration (mM): 25): 0% | Movement suppressed (%) (Tadpoles; [6]): 60%

CC(C)C(C(=O)O)C(=O)O [Isopropyl malonic acid, 2-isopropylmalonic acid]
Movement suppressed (%) (Tadpoles; Concentration (mM): 1.6): 0% | Movement suppressed (%) (Tadpoles; Concentration (mM): 6.25): 0% | Movement suppressed (%) (Tadpoles; Concentration (mM): 25): 50% | Movement suppressed (%) (Tadpoles; [5]): 40%

O=C(O)c1cc(O)c2ccccc2n1 [Kynurenic acid, 4-hydroxyquinoline-2-carboxylic acid]
Movement suppressed (%) (Tadpoles; Concentration (mM): 12.5): 0% | Movement suppressed (%) (Tadpoles; [7]): 100%

NC(=O)C[C@H](N)C(=O)O [L-Asparagine, Asparagine]
Movement suppressed (%) (Tadpoles; Concentration (mM): 100): 0% | Movement suppressed (%) (Tadpoles; [6]): 66%

N[C@@H](CO)C(=O)O [L-Serine, Serine]
Movement suppressed (%) (Tadpoles; Concentration (mM): 114): 0% | Movement suppressed (%) (Tadpoles; Concentration (mM): 229 + 150 EtOH): 60% | Movement suppressed (%) (Tadpoles; Concentration (mM): 300 + 150 EtOH): 100%

CC(C)[C@H](N)C(=O)O [L-valine, Valine]
Movement suppressed (%) (Tadpoles; Concentration (mM): 7.8): 0% | Movement suppressed (%) (Tadpoles; Concentration (mM): 31): 0% | Movement suppressed (%) (Tadpoles; Concentration (mM): 125): 0% | Movement suppressed (%) (Tadpoles; Concentration (mM): 500): 40% | Movement suppressed (%) (Tadpoles; Concentration (mM): 500 + 150 EtOH): 100%

CC(=O)CCC(=O)O [Levulinic acid, 4-oxopentanoic acid]
Movement suppressed (%) (Tadpoles; [6]): 50%

NCCCC[C@H](N)C(=O)O [Lysine]
Movement suppressed (%) (Tadpoles; [2]): 50%

O=C(O)C(O)c1ccccc1 (stereo not shown) [Mandelic acid, 2-Hydroxy-2-phenylacetic acid]
Movement suppressed (%) (Tadpoles; Concentration (mM): 250): 0% | Movement suppressed (%) (Tadpoles; Concentration (mM): 300): 100% | Movement suppressed (%) (Tadpoles; Concentration (mM): 500): 100%

CC(CC(=O)O)C(=O)O (stereo not shown) [Methylsuccinic acid]
Movement suppressed (%) (Tadpoles; [2]): 43%

O=C(O)CC(=O)C(=O)O [Oxaloacetic acid, 2-Oxosuccinic acid]
Movement suppressed (%) (Tadpoles; [1]): 100%

O=C(O)C(=O)Cc1ccccc1 [Phenylpyruvic acid, 2-Oxo-3-phenylpropanoic acid]
Movement suppressed (%) (Tadpoles; Concentration (mM): 62.5): 100% | Movement suppressed (%) (Tadpoles; Concentration (mM): 125): 100%

O=C(O)[C@@H]1CCCN1 [Proline]
Movement suppressed (%) (Tadpoles; Concentration (mM): 103): 0% | Movement suppressed (%) (Tadpoles; Concentration (mM): 411 + 150 EtOH): 100%

O=C(O)c1ccc2ccccc2n1 [Quinaldic acid, Quinoline-2-carboxylic acid]
Movement suppressed (%) (Tadpoles; Concentration (mM): 25): 16% | Movement suppressed (%) (Tadpoles; [5]): 60%

C[C@@H](O)CC(=O)O [R-3-hydroxybutyric acid, (R)-3-Hydroxybutanoic acid]
Movement suppressed (%) (Tadpoles; Concentration (mM): 100): 0% | Movement suppressed (%) (Tadpoles; Concentration (mM): 200): 0% | Movement suppressed (%) (Tadpoles; Concentration (mM): 250): 0% | Movement suppressed (%) (Tadpoles; Concentration (mM): 300): 0% | Movement suppressed (%) (Tadpoles; Concentration (mM): 350): 0% | Movement suppressed (%) (Tadpoles; Concentration (mM): 400): 46% | Movement suppressed (%) (Tadpoles; Concentration (mM): 500): 100%

C[C@H](O)CC(=O)O [S-3-hydroxybutyric acid, (S)-3-Hydroxybutanoic acid]
Movement suppressed (%) (Tadpoles; Concentration (mM): 100): 0% | Movement suppressed (%) (Tadpoles; Concentration (mM): 200): 0% | Movement suppressed (%) (Tadpoles; Concentration (mM): 250): 14% | Movement suppressed (%) (Tadpoles; Concentration (mM): 300): 17% | Movement suppressed (%) (Tadpoles; Concentration (mM): 350): 50% | Movement suppressed (%) (Tadpoles; Concentration (mM): 400): 92% | Movement suppressed (%) (Tadpoles; Concentration (mM): 500): 100%

O=C(O)CCCCCCC(=O)O [Suberic acid, Octanedioic acid]
Movement suppressed (%) (Tadpoles; Concentration (mM): 10): 50%

N[C@@H](Cc1c[nH]c2ccccc12)C(=O)O [Tryptophan]
Movement suppressed (%) (Tadpoles; Concentration (mM): 12.5): 0% | Movement suppressed (%) (Tadpoles; [7]): 80%

CCOC(=O)C(CC)C(=O)OCC [diethyl ethyl malonate, Diethyl ethyl malonate]
Observed effect on the animals (mice): lethargic and those loss coordination | Lethality (mice; 250 mM solution in intralipid): lethal | Lethality (mice; 1M solution in intralipid): lethal

CCOC(=O)C(CC)(C(=O)OCC)c1ccccc1 [diethyl ethylphenylmalonate]
Observed effect on the animals (mice): lethargic and those loss coordination | Lethality (mice; 250 mM solution in intralipid): lethal | Lethality (mice; 1M solution in intralipid): lethal

CCOC(=O)[C@@H](O)c1ccccc1 [ethyl (S)-(+)-mandelate]
Observed effect on the animals (mice): lethargic and those loss coordination | Lethality (mice; 250 mM solution in intralipid): lethal | Lethality (mice; 1M solution in intralipid): lethal

CCCC(=O)OCC [ethyl butyrate]
Observed effect on the animals (mice): lethargic and those loss coordination | Lethality (mice; 250 mM solution in intralipid): lethal | Lethality (mice; 1M solution in intralipid): lethal

Fumaric acid
Movement suppressed (%) (Tadpoles; Concentration (mM): 25): 40%

Guanidine
Movement suppressed (%) (Tadpoles; Concentration (mM): 62.5): 0%

Succinic acid
Movement suppressed (%) (Tadpoles; Concentration (mM): 62.5): 0%

Tartaric acid [L-Tartaric acid]
Movement suppressed (%) (Tadpoles; Concentration (mM): 50): 0%

ethyl isovaleric acid
Observed effect on the animals (mice): lethargic and those loss coordination

— US20220296584A1, “Membrane Active Molecules” (priority 2017, published 2022)
